PubChem BioAssay (NCI)
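Grown in 96-well plates, cells were treated for 48 hours with each compound at five concentrations. Insufficient inhibition: endpoint recorded as highest concentration tested. At the GI50, growth is halved. TGI marks complete inhibition of growth.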

Tests used:
Assay in all cases: inhibition of tumour cell growth, NCI panel, 48 h
SR leukemia = system: SR leukemia
NCI-H226 lung = system: NCI-H226 lung
A498 renal = system: A498 renal
NCI-H23 lung = system: NCI-H23 lung
RXF 393 renal = system: RXF 393 renal
ACHN renal = system: ACHN renal
SK-OV-3 ovarian = system: SK-OV-3 ovarian
SK-MEL-28 melanoma = system: SK-MEL-28 melanoma
EKVX NSCLC = system: EKVX NSCLC
UO-31 renal = system: UO-31 renal
TK-10 renal = system: TK-10 renal
SF-539 CNS = system: SF-539 CNS
SF-268 CNS = system: SF-268 CNS
HOP-92 NSCLC = system: HOP-92 NSCLC
SNB-75 CNS = system: SNB-75 CNS
HL-60(TB) leukemia = system: HL-60(TB) leukemia
COLO 205 colon = system: COLO 205 colon
HCC-2998 colon = system: HCC-2998 colon
RPMI-8226 leukemia = system: RPMI-8226 leukemia
M14 melanoma = system: M14 melanoma
KM12 colon = system: KM12 colon
MCF7 breast = system: MCF7 breast
HOP-62 NSCLC = system: HOP-62 NSCLC
SK-MEL-5 melanoma = system: SK-MEL-5 melanoma
T-47D breast = system: T-47D breast
CAKI-1 renal = system: CAKI-1 renal
MDA-MB-231 breast = system: MDA-MB-231 breast
K-562 leukemia = system: K-562 leukemia
UACC-62 melanoma = system: UACC-62 melanoma
IGROV1 ovarian = system: IGROV1 ovarian
OVCAR-4 ovarian = system: OVCAR-4 ovarian
A549 NSCLC = system: A549 NSCLC
HCT-116 colon = system: HCT-116 colon
UACC-257 melanoma = system: UACC-257 melanoma
OVCAR-5 ovarian = system: OVCAR-5 ovarian
BT-549 breast = system: BT-549 breast
OVCAR-8 ovarian = system: OVCAR-8 ovarian
SK-MEL-2 melanoma = system: SK-MEL-2 melanoma
MOLT-4 leukemia = system: MOLT-4 leukemia
786-0 renal = system: 786-0 renal
OVCAR-3 ovarian = system: OVCAR-3 ovarian
U251 CNS = system: U251 CNS
SW-620 colon = system: SW-620 colon
DU-145 prostate = system: DU-145 prostate
MDA-MB-468 breast = system: MDA-MB-468 breast
MALME-3M melanoma = system: MALME-3M melanoma
NCI-H522 lung = system: NCI-H522 lung
HS 578T breast = system: HS 578T breast
CCRF-CEM leukemia = system: CCRF-CEM leukemia
SNB-19 CNS = system: SNB-19 CNS
MDA-MB-435 = system: MDA-MB-435
LOX IMVI melanoma = system: LOX IMVI melanoma
SN12C renal = system: SN12C renal
HT29 colon = system: HT29 colon
HCT-15 colon = system: HCT-15 colon
NCI/ADR-RES ovarian = system: NCI/ADR-RES ovarian
SF-295 CNS = system: SF-295 CNS
PC-3 prostate = system: PC-3 prostate
NCI-H460 lung = system: NCI-H460 lung

`NS(=O)(=O)c1ccc(N=Nc2c(O)n(CC(=O)Nc3ccccc3Cl)c3ccccc23)cc1` showed a GI50 (SR leukemia) of 2.82 µM, a TGI (SR leukemia) greater than 100 µM and a GI50 (NCI-H226 lung) of 2.5 µM. For the same compound, the TGI (NCI-H226 lung) was 8.45 µM, the GI50 (A498 renal) was 3.64 µM and the TGI (A498 renal) was 16 µM. The GI50 (NCI-H23 lung) was 3.19 µM, the TGI (NCI-H23 lung) was 12.2 µM and the GI50 (RXF 393 renal) was 2.14 µM. The TGI (RXF 393 renal) was 5.74 µM, the GI50 (ACHN renal) was 2.21 µM and the TGI (ACHN renal) was 6.89 µM. The GI50 (SK-OV-3 ovarian) was 2.54 µM, the TGI (SK-OV-3 ovarian) was 8.74 µM and the GI50 (SK-MEL-28 melanoma) was 2.96 µM. For the same compound, the TGI (SK-MEL-28 melanoma) was 12.5 µM, the GI50 (EKVX NSCLC) was 4.09 µM and the TGI (EKVX NSCLC) was 36.1 µM. It also gave a GI50 (UO-31 renal) of 1.72 µM, a TGI (UO-31 renal) of 6.81 µM and a GI50 (TK-10 renal) of 10.8 µM. The TGI (TK-10 renal) was 34.5 µM, the GI50 (SF-539 CNS) was 1.7 µM and the TGI (SF-539 CNS) was 4.17 µM. The GI50 (SF-268 CNS) was 3.19 µM, the TGI (SF-268 CNS) was 21.9 µM and the GI50 (HOP-92 NSCLC) was 2.15 µM. The TGI (HOP-92 NSCLC) was 6.45 µM, the GI50 (SNB-75 CNS) was 2.01 µM and the TGI (SNB-75 CNS) was 14.4 µM. The GI50 (HL-60(TB) leukemia) was 2.38 µM, the TGI (HL-60(TB) leukemia) was 7.68 µM and the GI50 (COLO 205 colon) was 2.05 µM. It also gave a TGI (COLO 205 colon) of 4.14 µM, a GI50 (HCC-2998 colon) of 2.38 µM and a TGI (HCC-2998 colon) of 6.35 µM. It also gave a GI50 (RPMI-8226 leukemia) of 3.06 µM, a TGI (RPMI-8226 leukemia) greater than 100 µM and a GI50 (M14 melanoma) of 3.33 µM. It also gave a TGI (M14 melanoma) of 30.5 µM, a GI50 (KM12 colon) of 2.93 µM and a TGI (KM12 colon) of 12 µM. It also gave a GI50 (MCF7 breast) of 1.94 µM, a TGI (MCF7 breast) of 4.63 µM and a GI50 (HOP-62 NSCLC) of 2.75 µM. It also gave a TGI (HOP-62 NSCLC) of 12.7 µM, a GI50 (SK-MEL-5 melanoma) of 2.12 µM and a TGI (SK-MEL-5 melanoma) of 5.11 µM. For the same compound, the GI50 (T-47D breast) was 2.95 µM, the TGI (T-47D breast) was 34.5 µM and the GI50 (CAKI-1 renal) was 1.89 µM. For the same compound, the TGI (CAKI-1 renal) was 8.37 µM, the GI50 (MDA-MB-231 breast) was 3.34 µM and the TGI (MDA-MB-231 breast) was 16 µM. The GI50 (K-562 leukemia) was 3.66 µM, the TGI (K-562 leukemia) was greater than 100 µM and the GI50 (UACC-62 melanoma) was 1.81 µM. The TGI (UACC-62 melanoma) was 5.88 µM, the GI50 (IGROV1 ovarian) was 4.59 µM and the TGI (IGROV1 ovarian) was 19.1 µM. For the same compound, the GI50 (OVCAR-4 ovarian) was 4.57 µM, the TGI (OVCAR-4 ovarian) was 55.5 µM and the GI50 (A549 NSCLC) was 2.91 µM. The TGI (A549 NSCLC) was 10.3 µM, the GI50 (HCT-116 colon) was 2.94 µM and the TGI (HCT-116 colon) was 12.4 µM. For the same compound, the GI50 (UACC-257 melanoma) was 2.89 µM, the TGI (UACC-257 melanoma) was 9.83 µM and the GI50 (OVCAR-5 ovarian) was 4.3 µM. It also gave a TGI (OVCAR-5 ovarian) of 22.7 µM, a GI50 (BT-549 breast) of 2.26 µM and a TGI (BT-549 breast) of 6.79 µM. It also gave a GI50 (OVCAR-8 ovarian) of 2.49 µM, a TGI (OVCAR-8 ovarian) of 6.85 µM and a GI50 (SK-MEL-2 melanoma) of 3.95 µM. It also gave a TGI (SK-MEL-2 melanoma) of 21.1 µM, a GI50 (MOLT-4 leukemia) of 3.19 µM and a TGI (MOLT-4 leukemia) of 31.8 µM. The GI50 (786-0 renal) was 3.26 µM, the TGI (786-0 renal) was 12 µM and the GI50 (OVCAR-3 ovarian) was 2.56 µM. For the same compound, the TGI (OVCAR-3 ovarian) was 11.5 µM, the GI50 (U251 CNS) was 2.81 µM and the TGI (U251 CNS) was 9.62 µM. It also gave a GI50 (SW-620 colon) of 2.93 µM, a TGI (SW-620 colon) of 10.9 µM and a GI50 (DU-145 prostate) of 5.34 µM. It also gave a TGI (DU-145 prostate) of 23.1 µM, a GI50 (MDA-MB-468 breast) of 1.81 µM and a TGI (MDA-MB-468 breast) of 3.8 µM. For the same compound, the GI50 (MALME-3M melanoma) was 1.89 µM, the TGI (MALME-3M melanoma) was 6.91 µM and the GI50 (NCI-H522 lung) was 2.78 µM. The TGI (NCI-H522 lung) was 15.3 µM, the GI50 (HS 578T breast) was 3.23 µM and the TGI (HS 578T breast) was greater than 100 µM. It also gave a GI50 (CCRF-CEM leukemia) of 3.58 µM, a TGI (CCRF-CEM leukemia) of 23.2 µM and a GI50 (SNB-19 CNS) of 4.74 µM. For the same compound, the TGI (SNB-19 CNS) was 24.7 µM, the GI50 (MDA-MB-435) was 2.61 µM and the TGI (MDA-MB-435) was 19.4 µM. The GI50 (LOX IMVI melanoma) was 3.28 µM, the TGI (LOX IMVI melanoma) was 15.1 µM and the GI50 (SN12C renal) was 3.03 µM. For the same compound, the TGI (SN12C renal) was 16.1 µM, the GI50 (HT29 colon) was 2.04 µM and the TGI (HT29 colon) was 4.11 µM. It also gave a GI50 (HCT-15 colon) of 3 µM, a TGI (HCT-15 colon) of 15.4 µM and a GI50 (NCI/ADR-RES ovarian) of 3.93 µM. The TGI (NCI/ADR-RES ovarian) was 50.3 µM, the GI50 (SF-295 CNS) was 1.67 µM and the TGI (SF-295 CNS) was 3.58 µM. It also gave a GI50 (PC-3 prostate) of 2.76 µM, a TGI (PC-3 prostate) of 29.2 µM and a GI50 (NCI-H460 lung) of 3.1 µM. It also gave a TGI (NCI-H460 lung) of 10.8 µM.
